Legend:
rat P2X3 receptor = molecular target: T1, rat P2X3 receptor (Rattus norvegicus, UniProt P49654); experiment: P2X3 FLIPR (Fluorometric Imaging Plate Reader) assay, CHO-K1 cells; assay type: cell-based; settings: CHO-K1 cells transfected with rat P2X3; agonist α,β-meATP 1 μM; Fluo-3 calcium fluorescence
T1 construct: expressed in transfected cells; host or cells: CHO-K1
T1 sequence (P49654 1-397): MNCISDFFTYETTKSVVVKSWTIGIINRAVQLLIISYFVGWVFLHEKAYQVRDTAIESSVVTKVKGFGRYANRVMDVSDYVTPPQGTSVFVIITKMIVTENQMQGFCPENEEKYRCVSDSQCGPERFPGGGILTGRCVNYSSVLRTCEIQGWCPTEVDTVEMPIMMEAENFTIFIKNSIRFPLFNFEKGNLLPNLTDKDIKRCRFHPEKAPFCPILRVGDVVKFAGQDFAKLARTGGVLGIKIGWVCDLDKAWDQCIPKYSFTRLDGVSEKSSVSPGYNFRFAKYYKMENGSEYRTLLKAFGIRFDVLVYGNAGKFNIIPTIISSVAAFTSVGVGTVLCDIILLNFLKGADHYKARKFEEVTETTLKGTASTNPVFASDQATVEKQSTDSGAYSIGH
Protocol: (§1) CHO-K1 cells were transfected with cloned rat P2X3 or human P2X2/3 receptor subunits and passaged in flasks. 18-24 hours before the FLIPR experiment, cells were released from their flasks, centrifuged, and resuspended in nutrient medium at 2.5×10^5 cells/ml. The cells were aliquoted into black-walled 96-well plates at a density of 50,000 cells/well and incubated overnight in 5% CO2 at 37° C. On the day of the experiment, cells were washed in FLIPR buffer (calcium- and magnesium-free Hank's balanced salt solution, 10 mM HEPES, 2 mM CaCl2, 2.5 mM probenecid; FB). Each well received 100 μl FB and 100 μl of the fluorescent dye Fluo-3 AM [2 μM final conc.]. […]
(§2) Test compounds (dissolved in DMSO at 10 mM and serially diluted with FB) or vehicle were added to each well (25 μl of a 4X solution) and allowed to equilibrate for 20 minutes at room temperature. The plates were then placed in the FLIPR and a baseline fluorescence measurement (excitation at 488 nm and emission at 510-570 nm) was obtained for 10 seconds before a 100 µl/well agonist or vehicle addition. […] Fluorescence was measured for an additional 2 minutes at 1 second intervals after agonist addition. A final addition of ionomycin (5 μM, final concentration) was made to each well of the FLIPR test plate to establish cell viability and maximum fluorescence of dye-bound cytosolic calcium. […]

human P2X2/3 receptor = molecular target: T2, human P2X2/3 receptor (Homo sapiens, UniProt P56373+Q9UBL9); experiment: P2X2/3 FLIPR (Fluorometric Imaging Plate Reader) assay, CHO-K1 cells; assay type: cell-based; settings: CHO-K1 cells transfected with human P2X2/3; agonist α,β-meATP 5 μM; Fluo-3 calcium fluorescence
T2 construct: expressed in transfected cells; host or cells: CHO-K1
T2 sequence (Q9UBL9 1-471): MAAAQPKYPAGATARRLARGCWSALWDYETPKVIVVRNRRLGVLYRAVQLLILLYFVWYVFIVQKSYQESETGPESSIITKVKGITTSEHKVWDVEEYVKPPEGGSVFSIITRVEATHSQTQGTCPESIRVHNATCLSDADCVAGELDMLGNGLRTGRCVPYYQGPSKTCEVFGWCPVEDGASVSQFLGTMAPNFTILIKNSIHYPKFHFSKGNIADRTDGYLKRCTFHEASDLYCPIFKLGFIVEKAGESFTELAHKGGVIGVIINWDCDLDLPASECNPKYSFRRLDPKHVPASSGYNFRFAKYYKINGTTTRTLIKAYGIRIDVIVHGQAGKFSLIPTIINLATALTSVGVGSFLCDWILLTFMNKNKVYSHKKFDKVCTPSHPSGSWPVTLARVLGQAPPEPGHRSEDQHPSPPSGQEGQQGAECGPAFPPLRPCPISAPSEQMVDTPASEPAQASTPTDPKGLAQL
T2 sequence (P56373 1-397): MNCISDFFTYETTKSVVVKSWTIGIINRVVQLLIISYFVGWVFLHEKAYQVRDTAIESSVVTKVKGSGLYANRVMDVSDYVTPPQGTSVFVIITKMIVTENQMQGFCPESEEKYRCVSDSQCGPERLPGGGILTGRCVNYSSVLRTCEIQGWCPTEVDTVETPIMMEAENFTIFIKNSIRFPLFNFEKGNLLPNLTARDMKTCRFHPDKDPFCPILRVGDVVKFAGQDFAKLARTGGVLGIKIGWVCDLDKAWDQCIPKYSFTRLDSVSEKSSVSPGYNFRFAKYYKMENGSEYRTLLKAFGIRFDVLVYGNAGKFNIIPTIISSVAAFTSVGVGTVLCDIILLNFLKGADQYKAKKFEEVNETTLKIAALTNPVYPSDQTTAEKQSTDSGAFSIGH
Protocol: as §1, §2

| Structure (SMILES) | pIC50 for the P2X3 receptor (rat P2X3 receptor) | pIC50 for the P2X2/3 receptor (human P2X2/3 receptor) | melting point [°C] |
| --- | --- | --- | --- |
| CC(C)c1cc2ncccc2cc1Oc1cnc(N)nc1N [5-(7-Isopropyl-quinolin-6-yloxy)-pyrimidine-2,4-diamine] | approximately 7.42 | approximately 7.30 | 206.9 to 208.2 |
| Cc1cccc2cc(C(C)C)c(Oc3cnc(N)nc3N)cc12 [Compound 1, 5(3-Isopropyl-8-methyl-naphthalen-2-yloxy)-pyrimidine-2,4-diamine] |  |  | 148 |
| COc1ccc2cc(Oc3cnc(N)nc3N)c(C(C)C)cc2c1 [Compound 4, 5-(3-Isopropyl-6-methoxy-naphthalen-2-yloxy)-pyrimidine-2,4-diamine] |  |  | 170 to 172 |
| CC(C)c1cc2cccnc2cc1Oc1cnc(N)nc1N [Compound 9, 5-(6-lsopropyl-quinolin-7-yloxy)-pyrimidine-2,4-diamine] |  |  | 276.3 to 278 |
| CC(C)c1cc2ncccc2cc1Oc1cnc(NC(CO)CO)nc1N [Compound 11, 2-[4-Amino-5-(7-isopropyl-quinolin-6-yloxy)-pyrimidin-2-ylamino]-propane-1,3-diol] |  |  | 171.9 to 174.4 |
